Values of other authors, collected in patent US11406636B2, “Combined pharmaceutical composition” (Alepharma, Sociedad Anónima Promotora de inversión de …, priority 2017, dated 2022).
Read-outs that look alike come from different tables or passages of the source.

What was measured:
[1] = tested on: CML formation; settings: bovine serum with ribose, presence or absence of natural compounds
[2] = tested on: streptozotocin-induced diabetic rat; settings: for levels of methylglyoxal: increased by 68% in diabetic rats versus normal controls; for levels of glyoxal: increased by 115% in diabetic rats versus normal controls
[3] = tested on: diabetic rats; settings: 200 mg/kg weight orally for 8 weeks
[4] = tested on: bovine serum albumin, ribonuclease A and human hemoglobin; settings: in vitro
[5] = not given; remark: listed apart in the source
[6] = physiological conditions, dose-dependent, forming adducts
[7] = within the first hour under physiological conditions

C[C@@H]1O[C@@H](O[C@@H]2[C@@H](O)[C@H](OCCc3ccc(O)c(O)c3)O[C@H](CO)[C@H]2OC(=O)/C=C/c2ccc(O)c(O)c2)[C@H](O)[C@H](O)[C@H]1O [acteoside]
formation of CML [1]: increase the formation of CML

C/C(=C(\CCOP(=O)(O)O)SC(=O)c1ccccc1)N(C=O)Cc1cnc(C)nc1N [benfotiamine]
levels of methylglyoxal [2]: normalized | levels of glyoxal [2]: normalized

COc1cc(/C=C/C(=O)CC(=O)/C=C/c2ccc(O)c(OC)c2)ccc1O [curcumin, Curcumin]
accelerated accumulation of AGEs in the collagen, detected by ELISA [3]: prevented | accumulation of lipid peroxidation products in serums [3]: significantly reduced | collagen cross-linking in the tendon of the tail and skin [3]: extensively prevented | oxidative stress [3]: significantly reduced

O=C(O)c1cc(O)c(O)c(O)c1 [gallic acid]
formation of CML [1]: increase the formation of CML

CC1(C)[C@@H](O)CC[C@]2(C)[C@H]3C(=O)C=C4[C@@H]5C[C@@](C)(C(=O)O)CC[C@]5(C)CC[C@@]4(C)[C@]3(C)CC[C@@H]12 [glycylrhetinic acid]
formation of CML [1]: significantly inhibited the formation of CML

CC1(C)[C@@H](O[C@H]2O[C@H](C(=O)O)[C@@H](O)[C@H](O)[C@H]2O[C@@H]2O[C@H](C(=O)O)[C@@H](O)[C@H](O)[C@H]2O)CC[C@]2(C)[C@H]3C(=O)C=C4[C@@H]5C[C@@](C)(C(=O)O)CC[C@]5(C)CC[C@@]4(C)[C@]3(C)CC[C@@H]12 [glycyrrhizin]
formation of CML [1]: significantly inhibited the formation of CML

Cc1ncc(CO)c(CN)c1O [pyridoxamine]
inhibition of the formation of AGEs, compared with aminoguanidine [4]: more effective than aminoguanidine

Cc1ncc(CO)c(CO)c1O [pyridoxine, Pyridoxine]
inhibition of the formation of AGEs, compared with aminoguanidine [4]: more effective than aminoguanidine

O=c1c(O)c(-c2ccc(O)c(O)c2)oc2cc(O)cc(O)c12 [quercetin, Quercetin]
formation of CML [1]: significantly inhibited the formation of CML | methylglyoxal trapped [6]: ≤ 80% | methylglyoxal trapped [7]: ≤ 50% | glyoxal trapped [5, 6]: up to 50% | glyoxal trapped [5, 7]: up to 30%

Cc1ncc(C[n+]2csc(CCO)c2C)c(N)n1 [thiamine, Thiamine]
levels of methylglyoxal [2]: normalized | levels of N-carboxymethyl-lysine (CML) ([2]; increased by 74% in diabetic rats): normalized | levels of glyoxal [2]: normalized | levels of N-carboxyethyl-lysine (CEL) ([2]; increased by 118% in diabetic rats): normalized | inhibition of the formation of AGEs, compared with aminoguanidine [4]: more effective than aminoguanidine
